Experimental data: patent publication EP1724268A1, “COMPOUND HAVING TGF-BETA INHIBITORY ACTIVITY AND PHARMACEUTICAL COMPOSITION CONTAINING SAME” (KIRIN BEER KABUSHIKI KAISHA, priority 2004, dated 2005)
Where two headings read alike, the source gives them in different places.

System: TGFβ signal
Test: TGFβ signal inhibitory activity, (SBE)4-Luc reporter in A549 cells (Test Examples 1A and 1B)
Assay type: cell-based, human
Conditions: Homo sapiens, A549, read-out: TGFβ inhibition rate, %; for inhibition at 3 µM: test compound 3 µM; for inhibition at 10 µM: test compound 10 µM
Summary of the method: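 Compounds at 3 µM and 10 µM (some 1 µM) were added with 2 ng/ml TGFβ-1 to A549 cells stably expressing an SBE-driven luciferase, then cultured 4 hr. Chemiluminescent luciferase signal gave % inhibition versus TGFβ-alone and no-TGFβ controls.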

SMILES | inhibition at 3 µM (TGFβ-1 2 ng/ml, 4 hr, Table 1A) [%] | inhibition at 10 µM (TGFβ-1 2 ng/ml, 4 hr, Table 1A) [%] | inhibition at 3 µM (Reference Examples, Table 1B) [%] | inhibition at 10 µM (Reference Examples, Table 1B) [%]
Cc1ccc(Oc2ccnc3ccc(OCCCCl)cc23)c(-c2ncccn2)n1 [Compound 210, 6-(3-Chloro-propoxy)-4-(6-methyl-2-pyrimidin-2-yl-pyridin-3-yloxy)-quinoline] | 87 |  |  | 
Cc1ccc(Oc2ccnc3ccc(OCCCN(C)CCO)cc23)c(-c2ncccn2)n1 [Compound 211, 2-(Methyl-{3-[4-(6-methyl-2-pyrimidin-2-yl-pyridin-3-yloxy)-quinolin-6-yloxy]-propyl}-amino)-ethanol] | 54 |  |  | 
Cc1ccc(Oc2ccnc3ccc(OCCCN4CCCCC4)cc23)c(-c2ncccn2)n1 [Compound 212, 4-(6-Methyl-2-pyrimidin-2-yl-pyridin-3-yloxy)-6-(3-piperidin-1- ? -propoxy)-quinoline] | 55 |  |  | 
Cc1ccc(Oc2ccnc3ccc(OCC4CCC4)cc23)c(-c2ncccn2)n1 [Compound 213, 6-Cyclobutylmethoxy-4-(6-methyl-2-pyrimidin-2-yl-pyridin-3-yloxy)-quinoline] | 98 |  |  | 
Cc1ccc(Oc2ccnc3ccc(OCC(C)(C)C)cc23)c(-c2ncccn2)n1 [Compound 214, 6-(2,2-Dimethyl-propoxy)-4-(6-methyl-2-pyrimidin-2-yl-pyridin-3-yloxy)-quinoline] | 90 |  |  | 
Cc1ccc(Oc2ccnc3ccc(OCC(C)(C)CO)cc23)c(-c2ncccn2)n1 [Compound 215, 2,2-Dimethyl-3-[4-(6-methyl-2-pyrimidin-2-yl-pyridin-3-yloxy)-quinolin-6-yloxy]-propan-1-ol] | 79 |  |  | 
Cc1ccc(Oc2ccnc3ccc(OCCC4CCCCC4)cc23)c(-c2ncccn2)n1 [Compound 216, 6-(2-Cyclohexylethoxy)-4-(6-methyl-2-pyrimidin-2-yl-pyridin-3-yloxy)-quinoline] | 84 |  |  | 
Cc1ccc(Oc2ccnc3ccc(OCCCN4CCN(c5ccccn5)CC4)cc23)c(-c2ncccn2)n1 [Compound 218, 4-(6-Methyl-2-pyrimidin-2-yl-pyridin-3-yloxy)-6-[3-(4-pyridin-2-yl-piperazin-1-yl)-propoxy]-quinoline] | 84 | 100 |  | 
Cc1ccc(Oc2ccnc3ccc(OCCCN(CCO)c4ccccc4)cc23)c(-c2ncccn2)n1 [Compound 219, 2-({3-[4-(6-Methyl-2-pyrimidin-2-yl-pyridin-3-yloxy)-quinolin-6-yloxy]-propyl}-phenylamino)-ethanol] | 96 | 100 |  | 
Cc1ccc(Oc2ccnc3ccc(OCCCN4CCC(Cc5ccccc5)CC4)cc23)c(-c2ncccn2)n1 [Compound 220, 6-[3-(4-Benzyl-piperidin-1-yl)-propoxy]-4-(6-methyl-2-pyrimidin-2-yl-pyridin-3-yloxy)-quinoline] | 91 | 100 |  | 
Cc1ccc(Oc2ccnc3ccc(OCCCN4CCN(CCO)CC4)cc23)c(-c2ncccn2)n1 [Compound 221, 2-(4-{3-[4-(6-Methyl-2-pyrimidin-2-yl-pyridin-3-yloxy)-quinolin-6-yloxy]-propyl}-piperazin-1-yl)-ethano I] | 39 | 79 |  | 
CCN(C)CCOc1ccc2nccc(Oc3ccc(C)nc3-c3ncccn3)c2c1 [Compound 223, ethyl-methyl-{2-[4-(6-methyl-2-pyrimidin-2-yl-pyridin-3-yloxy)-quinolin-6-yloxy]-ethyl}-amine] | 52 | 90 |  | 
CCc1ccc(Oc2ccnc3ccc(OCCOC(=O)C(C)(C)CC)cc23)c(-c2ncccn2)n1 [Compound 224, 2-[4-(6-Ethyl-2-pyrimidin-2-yl-pyridin-3-yloxy)-quinolin-6-yloxy]-ethyl 2,2-dimethyl-butanoate] | 95 | 100 |  | 
COc1cc2nccc(Oc3ccccc3Cc3ccccc3)c2cc1OC [Compound r1, 4-(2-Benzylphenoxy)-6,7-dimethoxyquinoline] |  |  | 5 | 53
CC=Cc1ccccc1Oc1ccnc2cc(OC)c(OC)cc12 [Compound r2] |  |  | 13 | 88
COc1cc2nccc(Oc3ccc(C)cc3Cl)c2cc1OC [Compound r3] |  |  | 0 | 75
COc1cc2nccc(Oc3ccc(C)cc3Br)c2cc1OC [Compound r4] |  |  | 20 | 78
COc1cc2nccc(Oc3ccc(C)cc3CN3CCCCC3)c2cc1OC [Compound r6, 6,7-Dimethoxy-4-[4-methyl-2-(piperidinomethyl)phenoxy]quinoline] |  |  | 30 | 72
COc1ccc(Oc2ccnc3cc(OC)c(OC)cc23)c(/C=C/c2ccccc2)c1 [Compound r7, 6,7-Dimethoxy-4-{4-methoxy-2-[(E)-2-phenyl-1-ethenyl]phenoxy}quinoline] |  |  | 13 | 54
CCC(O)c1cc(C)ccc1Oc1ccnc2cc(OC)c(OC)cc12 (stereo not drawn) [Compound r9, 1-{2-[(6,7-Dimethoxy-4-quinolyl)oxy]-5-methylphenyl}-1-propanol] |  |  | 29 | 77
CCC(O)c1cc(OC)ccc1Oc1ccnc2cc(OC)c(OC)cc12 (stereo not drawn) [Compound r11] |  |  | 28 | 66
COc1cc2nccc(Oc3ccc(C)cc3Nc3ccccc3)c2cc1OC [Compound r14, N-[2-[(6,7-Dimethoxy-4-quinolyl)oxy]-5-methylphenyl]-N-phenylamine] |  |  | 15 | 64
COc1cc2nccc(Oc3cccc4ccccc34)c2cc1OC [Compound r16] |  |  | 0 | 62
COc1cc2nccc(Oc3ccc4ccccc4c3)c2cc1OC [Compound r17] |  |  | 15 | 80
COc1cc2nccc(Oc3ccc4c(c3)C(=O)c3ccccc3-4)c2cc1OC [Compound r19] |  |  | 73 | 95

SMILES | inhibition at 3 µM (TGFβ-1 2 ng/ml, 4 hr, Table 1A) [%] | inhibition at 10 µM (TGFβ-1 2 ng/ml, 4 hr, Table 1A) [%] | inhibition at 3 µM (Reference Examples, Table 1B) [%] | inhibition at 10 µM (Reference Examples, Table 1B) [%]
COc1cc2nccc(Oc3ccc4c(ccn4C)c3)c2cc1OC [Compound r20, 6,7-Dimethoxy-4-[(1-methyl-5-indolyl)oxy]quinoline] |  |  | 19 | 69
COc1cc2nccc(Oc3ccc4c(ccn4C(C)=O)c3)c2cc1OC [Compound r21] |  |  | 16 | 71
CCOC(=O)c1cc2cc(Oc3ccnc4cc(OC)c(OC)cc34)ccc2[nH]1 [Compound r22] |  |  | 11 | 81
COc1cc2nccc(Oc3ccc4c(c3)COC(=O)N4)c2cc1OC [Compound r23, 6-[(6,7-Dimethoxy-4-quinolyl)oxy]-1,4-dihydro-2H-3,1-benzoxazin-2-one] |  |  | 56 | 91
COc1ccc(Oc2ccnc3cc(OC)c(OC)cc23)c(C=O)c1 [Compound r26] |  |  | 20 | 73
COc1cc2nccc(Oc3ccc4ccccc4c3C=O)c2cc1OC [Compound r27] |  |  | 0 | 93
COc1cc2nccc(Oc3cc4c5c(c3C=O)CCCN5CCC4)c2cc1OC [Compound r28] |  |  | 0 | 53
COc1cc2nccc(Oc3ccccc3C(C)=O)c2cc1OC [Compound r29] |  |  | 0 | 67
COc1cc2nccc(Oc3c(OC)cccc3C(C)=O)c2cc1OC [Compound r30] |  |  | 0 | 61
COc1cc2nccc(Oc3cc(C)ccc3C(C)=O)c2cc1OC [Compound r32] |  |  | 81 | 98
COc1cc2nccc(Oc3ccc(C)cc3C(C)=O)c2cc1OC [Compound r35] |  |  | 49 | 89
COc1cc2nccc(Oc3cc(C)c(Cl)cc3C(C)=O)c2cc1OC [Compound r37] |  |  | 94 | 100
COc1cc2nccc(Oc3cc(C)c(C)cc3C(C)=O)c2cc1OC [Compound r38] |  |  | 98 | 100
COc1cc(Oc2ccnc3cc(OC)c(OC)cc23)c(C(C)=O)cc1OC [Compound r39] |  |  | 0 | 91
COc1cc2nccc(Oc3c(C(C)=O)ccc4ccccc34)c2cc1OC [Compound r41] |  |  | 57 | 97
CCC(=O)c1ccc(OCc2ccccc2)cc1Oc1ccnc2cc(OC)c(OC)cc12 [Compound r45] |  |  | 0 | 67
CCC(=O)c1cc(I)ccc1Oc1ccnc2cc(OC)c(OC)cc12 [Compound r47] |  |  | 45 | 98
CCC(=O)c1cc(C)ccc1Oc1ccnc2cc(OC)c(OC)cc12 [Compound r48] |  |  | 98 | 100
CCC(=O)c1cc(C(C)(C)C)ccc1Oc1ccnc2cc(OC)c(OC)cc12 [Compound r49] |  |  | 0 | 62
CCC(=O)c1cc(OC)ccc1Oc1ccnc2cc(OC)c(OC)cc12 [Compound r50] |  |  | 100 | 100
CCC(=O)c1cc(OC(F)(F)F)ccc1Oc1ccnc2cc(OC)c(OC)cc12 [Compound r51] |  |  | 71 | 99
CCCCC(=O)c1cc(C)ccc1Oc1ccnc2cc(OC)c(OC)cc12 [Compound r52] |  |  | 97 | 100
COc1cc2nccc(Oc3ccc(C)cc3C(=O)C(C)C)c2cc1OC [Compound r53] |  |  | 97 | 100
COc1cc2nccc(Oc3ccc(C)cc3C(=O)C(C)(C)C)c2cc1OC [Compound r54] |  |  | 13 | 73
COc1cc2nccc(Oc3ccc(C)cc3C(=O)CC(C)(C)C)c2cc1OC [Compound r55] |  |  | 53 | 98
